Paper PMC5007854, “β-Nitrostyrenes as Potential Anti-leishmanial Agents” (Frontiers in Microbiology, 2016)
In brackets after ≈: the same amount, converted by molar mass.

Legend:
Aspergillus species = assay: Broth microdilution, pooled statement for Aspergillus species; assay type: cell-based; conditions: range over A. fumigatus and A. niger
Source text: (§1) One reference each of the following species was used for their in vitro susceptibility to β-nitrostyrene in this study: Staphylococcus aureus ATCC 29213, Staphylococcus epidermidis ATCC 14990, Escherichia coli ATCC 25922, Pseudomonas aeruginosa ATCC 27853, Candida albicans ATCC 90028, Candida glabrata ATCC 90030, Aspergillus fumigatus ATCC 16424 and Aspergillus niger ATCC 16404. These strains were procured from the American Type Culture Collection (ATCC, Manassas, VA, USA).
(§2) The antibacterial and antifungal activities of the β-nitrostyrenes were performed by broth microdilution methods as per the guidelines of Clinical and Laboratory Standard Institute (Wayne, [1998], [2008a],[b],[c]) by using Mueller-Hinton broth (MHB; Becton-Dickinson, Cockeysville, MD, USA) supplemented with calcium (25 mg/L) and magnesium (12.5 mg/L) for bacterial strains while as RPMI 1640 medium with L-glutamine and without sodium bicarbonate, buffered to pH 7.0 with 0.165 M 3-(N-morpholino) propanesulfonic acid (MOPS; both from Sigma) was used for fungal strains. […] The plates were read visually and the minimum inhibitory concentration (MIC) was defined as the lowest concentration of test sample that prevented visible growth with respect to the growth control.

Candida species = assay: Broth microdilution, pooled statement for Candida species; assay type: cell-based; conditions: range over C. albicans and C. glabrata
Source text: as §1, §2

[1] = tested on: gram-positive bacteria (S. aureus and S. epidermidis); assay: Broth microdilution, pooled statement for gram-positive bacteria; assay type: cell-based; conditions: Staphylococcus aureus; range over both strains
Source text: as §1, §2

| Compound | melting point [°C] | MIC (Aspergillus species) [µg/mL] | MIC (Candida species) [µg/mL] | MIC [1] [µg/mL] |
| --- | --- | --- | --- | --- |
| CC/C(=C\c1ccc([N+](=O)[O-])cc1)[N+](=O)[O-] [Compound 9, 1-nitro-4-((E)-2-nitrobut-1-enyl) benzene] | 104 to 106 | – | – | – |
| CC/C(=C\c1cccc([N+](=O)[O-])c1)[N+](=O)[O-] [Compound 12, 1-nitro-3-((E)-2-nitrobut-1-enyl) benzene] | 84 to 86 | 0.5 to 1 (≈ 2.25 to 4.5 µM) | 0.25 to 2 (≈ 1.13 to 9 µM) | 0.25 to 0.5 (≈ 1.13 to 2.25 µM) |
